Data reported in PubChem BioAssay (NCI).
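In this assay, cells in 96-well plates receive the compound at five concentrations for 48 hours. Endpoints are linearly interpolated between the surrounding concentrations. The concentration for full growth arrest is given as TGI.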

Tests used:
Assay in all cases: NCI-60 cell line screen, 48 h
NCI-H522 lung = test system: NCI-H522 lung
PC-3 prostate = test system: PC-3 prostate
IGROV1 ovarian = test system: IGROV1 ovarian
SN12C renal = test system: SN12C renal
K-562 leukemia = test system: K-562 leukemia
SNB-75 CNS = test system: SNB-75 CNS
HT29 colon = test system: HT29 colon
HL-60(TB) leukemia = test system: HL-60(TB) leukemia
SK-MEL-5 melanoma = test system: SK-MEL-5 melanoma
RPMI-8226 leukemia = test system: RPMI-8226 leukemia
NCI-H460 lung = test system: NCI-H460 lung
LOX IMVI melanoma = test system: LOX IMVI melanoma
A549 NSCLC = test system: A549 NSCLC
HOP-62 NSCLC = test system: HOP-62 NSCLC
TK-10 renal = test system: TK-10 renal
OVCAR-5 ovarian = test system: OVCAR-5 ovarian
SR leukemia = test system: SR leukemia
DU-145 prostate = test system: DU-145 prostate
MOLT-4 leukemia = test system: MOLT-4 leukemia
SK-MEL-28 melanoma = test system: SK-MEL-28 melanoma
NCI-H226 lung = test system: NCI-H226 lung
MDA-MB-231 breast = test system: MDA-MB-231 breast
UO-31 renal = test system: UO-31 renal
OVCAR-8 ovarian = test system: OVCAR-8 ovarian
BT-549 breast = test system: BT-549 breast
MDA-MB-435 = test system: MDA-MB-435
MALME-3M melanoma = test system: MALME-3M melanoma
M14 melanoma = test system: M14 melanoma
786-0 renal = test system: 786-0 renal
NCI/ADR-RES ovarian = test system: NCI/ADR-RES ovarian
CCRF-CEM leukemia = test system: CCRF-CEM leukemia
SF-295 CNS = test system: SF-295 CNS
HCT-15 colon = test system: HCT-15 colon
RXF 393 renal = test system: RXF 393 renal
T-47D breast = test system: T-47D breast
SK-MEL-2 melanoma = test system: SK-MEL-2 melanoma
HCT-116 colon = test system: HCT-116 colon
MCF7 breast = test system: MCF7 breast
MDA-N = test system: MDA-N
COLO 205 colon = test system: COLO 205 colon
OVCAR-4 ovarian = test system: OVCAR-4 ovarian
HS 578T breast = test system: HS 578T breast
KM12 colon = test system: KM12 colon
ACHN renal = test system: ACHN renal
NCI-H23 lung = test system: NCI-H23 lung
HOP-92 NSCLC = test system: HOP-92 NSCLC
UACC-257 melanoma = test system: UACC-257 melanoma
SF-268 CNS = test system: SF-268 CNS
EKVX NSCLC = test system: EKVX NSCLC
A498 renal = test system: A498 renal
HCC-2998 colon = test system: HCC-2998 colon
SW-620 colon = test system: SW-620 colon
UACC-62 melanoma = test system: UACC-62 melanoma
U251 CNS = test system: U251 CNS
OVCAR-3 ovarian = test system: OVCAR-3 ovarian
SK-OV-3 ovarian = test system: SK-OV-3 ovarian
SNB-19 CNS = test system: SNB-19 CNS
SF-539 CNS = test system: SF-539 CNS
CAKI-1 renal = test system: CAKI-1 renal

## Cc1ccc(N=Nc2ccc(O)c(CN(C)C)c2)cc1C
NCI-H522 lung
  TGI: 28.3 µM
PC-3 prostate
  TGI: > 100 µM
IGROV1 ovarian
  TGI: 84.3 µM
SN12C renal
  TGI: > 100 µM
K-562 leukemia
  TGI: 43.5 µM
SNB-75 CNS
  TGI: > 100 µM
HT29 colon
  TGI: 38.5 µM
HL-60(TB) leukemia
  TGI: 26.1 µM
SK-MEL-5 melanoma
  TGI: 28.4 µM
RPMI-8226 leukemia
  TGI: 90.1 µM
NCI-H460 lung
  TGI: 42.6 µM
LOX IMVI melanoma
  TGI: 76.2 µM
A549 NSCLC
  TGI: > 100 µM
HOP-62 NSCLC
  TGI: 52.5 µM
TK-10 renal
  TGI: 43.3 µM
OVCAR-5 ovarian
  TGI: > 100 µM
SR leukemia
  TGI: > 100 µM
DU-145 prostate
  TGI: 95.8 µM
MOLT-4 leukemia
  TGI: 61.5 µM
SK-MEL-28 melanoma
  TGI: 44.7 µM
NCI-H226 lung
  TGI: > 100 µM
MDA-MB-231 breast
  TGI: > 100 µM
UO-31 renal
  TGI: 53.2 µM
OVCAR-8 ovarian
  TGI: > 100 µM
BT-549 breast
  TGI: > 100 µM
MDA-MB-435
  TGI: 40.4 µM
MALME-3M melanoma
  TGI: 34.8 µM
M14 melanoma
  TGI: 81.1 µM
786-0 renal
  TGI: > 100 µM
NCI/ADR-RES ovarian
  TGI: 52.6 µM
CCRF-CEM leukemia
  TGI: 76.5 µM
SF-295 CNS
  TGI: > 100 µM
HCT-15 colon
  TGI: 54 µM
RXF 393 renal
  TGI: 57.8 µM
T-47D breast
  TGI: 41.9 µM
SK-MEL-2 melanoma
  TGI: 34.7 µM
HCT-116 colon
  TGI: > 100 µM
MCF7 breast
  TGI: > 100 µM
MDA-N
  TGI: > 100 µM
COLO 205 colon
  TGI: 25.6 µM
OVCAR-4 ovarian
  TGI: > 100 µM
HS 578T breast
  TGI: 56.2 µM
KM12 colon
  TGI: 45.6 µM
ACHN renal
  TGI: 60.1 µM
NCI-H23 lung
  TGI: > 100 µM
HOP-92 NSCLC
  TGI: > 100 µM
UACC-257 melanoma
  TGI: 58.9 µM
SF-268 CNS
  TGI: > 100 µM
EKVX NSCLC
  TGI: 61.8 µM
A498 renal
  TGI: 47.4 µM
HCC-2998 colon
  TGI: 32.7 µM
SW-620 colon
  TGI: > 100 µM
UACC-62 melanoma
  TGI: 34.6 µM
U251 CNS
  TGI: > 100 µM
OVCAR-3 ovarian
  TGI: > 100 µM
SK-OV-3 ovarian
  TGI: > 100 µM
SNB-19 CNS
  TGI: > 100 µM
SF-539 CNS
  TGI: 44.1 µM
CAKI-1 renal
  TGI: > 100 µM

## COC(=O)c1ccccc1CC1Cc2ccc3c(c2C1)CCC3 (stereo not drawn)
NCI-H522 lung
  TGI: 46.9 µM
PC-3 prostate
  TGI: > 100 µM
IGROV1 ovarian
  TGI: > 100 µM
SN12C renal
  TGI: > 100 µM
K-562 leukemia
  TGI: > 100 µM
SNB-75 CNS
  TGI: > 100 µM
HT29 colon
  TGI: 96.8 µM
HL-60(TB) leukemia
  TGI: 32.1 µM
SK-MEL-5 melanoma
  TGI: 43.8 µM
RPMI-8226 leukemia
  TGI: 47.7 µM
NCI-H460 lung
  TGI: > 100 µM
LOX IMVI melanoma
  TGI: 31.1 µM
A549 NSCLC
  TGI: > 100 µM
HOP-62 NSCLC
  TGI: > 100 µM
TK-10 renal
  TGI: > 100 µM
OVCAR-5 ovarian
  TGI: 91.3 µM
SR leukemia
  TGI: 27.1 µM
DU-145 prostate
  TGI: > 100 µM
MOLT-4 leukemia
  TGI: 53.9 µM
SK-MEL-28 melanoma
  TGI: > 100 µM
NCI-H226 lung
  TGI: > 100 µM
MDA-MB-231 breast
  TGI: 50.5 µM
UO-31 renal
  TGI: > 100 µM
OVCAR-8 ovarian
  TGI: > 100 µM
BT-549 breast
  TGI: > 100 µM
MDA-MB-435
  TGI: 57.9 µM
MALME-3M melanoma
  TGI: 38.6 µM
M14 melanoma
  TGI: > 100 µM
786-0 renal
  TGI: > 100 µM
NCI/ADR-RES ovarian
  TGI: 45.7 µM
CCRF-CEM leukemia
  TGI: 36.9 µM
SF-295 CNS
  TGI: > 100 µM
HCT-15 colon
  TGI: 55.3 µM
RXF 393 renal
  TGI: 52.9 µM
T-47D breast
  TGI: > 100 µM
SK-MEL-2 melanoma
  TGI: 30.7 µM
HCT-116 colon
  TGI: > 100 µM
MCF7 breast
  TGI: 30.1 µM
MDA-N
  TGI: > 100 µM
COLO 205 colon
  TGI: 34.5 µM
OVCAR-4 ovarian
  TGI: > 100 µM
HS 578T breast
  TGI: > 100 µM
KM12 colon
  TGI: 92.1 µM
ACHN renal
  TGI: > 100 µM
NCI-H23 lung
  TGI: > 100 µM
HOP-92 NSCLC
  TGI: 52.5 µM
UACC-257 melanoma
  TGI: 28.6 µM
SF-268 CNS
  TGI: > 100 µM
EKVX NSCLC
  TGI: 48.8 µM
A498 renal
  TGI: > 100 µM
HCC-2998 colon
  TGI: 45.7 µM
SW-620 colon
  TGI: > 100 µM
UACC-62 melanoma
  TGI: > 100 µM
U251 CNS
  TGI: 85.1 µM
OVCAR-3 ovarian
  TGI: > 100 µM
SK-OV-3 ovarian
  TGI: > 100 µM
SNB-19 CNS
  TGI: > 100 µM
SF-539 CNS
  TGI: > 100 µM
CAKI-1 renal
  TGI: > 100 µM
